Reference: ChEMBL document CHEMBL1201862, “PubChem BioAssay data set” (2004)
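All cell lines were grown in 96-well plates and treated with compound for 48 hours. GI50 = concentration required for 50% inhibition of growth.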 The source made the active and inactive calls. No stated cut-off is given here; in the data, active = GI50 up to about 1.1 µM and inactive = higher.

Key:
Experiment in all cases: DTP human tumour cell line panel, 48 h
BT-549 = system: BT-549
CCRF-CEM = system: CCRF-CEM
HCT-116 = system: HCT-116
K562 = system: K562
LOX IMVI = system: LOX IMVI
MCF7 = system: MCF7
MOLT-4 = system: MOLT-4
Malme-3M = system: Malme-3M
NCI-H23 = system: NCI-H23
NCI/ADR-RES = system: NCI/ADR-RES
OVCAR-8 = system: OVCAR-8
RXF 393 = system: RXF 393
SF-295 = system: SF-295
SF-539 = system: SF-539
SN12C = system: SN12C
U-251 = system: U-251
UACC-257 = system: UACC-257
UO-31 = system: UO-31
HL-60 = system: HL-60
SNB-19 = system: SNB-19

Structure (SMILES) | GI50 (BT-549) | GI50 (CCRF-CEM) | GI50 (HCT-116) | GI50 (K562) | GI50 (LOX IMVI) | GI50 (MCF7) | GI50 (MOLT-4) | GI50 (Malme-3M) | GI50 (NCI-H23) | GI50 (NCI/ADR-RES) | GI50 (OVCAR-8) | GI50 (RXF 393) | GI50 (SF-295) | GI50 (SF-539) | GI50 (SN12C) | GI50 (U-251) | GI50 (UACC-257) | GI50 (UO-31) | GI50 (HL-60) | GI50 (SNB-19)
O=C1C=Cc2c(I)sc(I)c21 | 17.6 µM (inactive) | 2.88 µM (inactive) | 15.7 µM (inactive) | 14.3 µM (inactive) | 12.1 µM (inactive) | 18.4 µM (inactive) | 12 µM (inactive) | 14.5 µM (inactive) | 18.9 µM (inactive) | 23.3 µM (inactive) | 18.9 µM (inactive) | 20.6 µM (inactive) | 46.8 µM (inactive) | 25.6 µM (inactive) | 19.5 µM (inactive) | 17 µM (inactive) | 20 µM (inactive) | 15.8 µM (inactive) | – | –
COc1cc2c(c(OC)c1O)-c1ccc(OC)c(=O)cc1[C@@H](NC(=O)C(F)(F)F)CC2 | 1.98 µM (inactive) | 0.0519 µM (active) | 0.0474 µM (active) | – | 0.163 µM (active) | 0.0441 µM (active) | – | 0.0641 µM (active) | 0.0809 µM (active) | 3.72 µM (inactive) | 0.243 µM (active) | – | 0.392 µM (active) | 0.0243 µM (active) | 2.52 µM (inactive) | 0.324 µM (active) | > 100 µM (inactive) | 6.87 µM (inactive) | 0.0217 µM (active) | 0.0975 µM (active)
COC1CC(OC2C(C)OC(OC3C(C)OC(OC4C(C)OC(O[C@H]5CC[C@@]6(C)C(=CC[C@]7(O)[C@@H]6C[C@@H](O)[C@@]6(C)[C@]7(O)CC[C@@]6(O)C(C)=O)C5)CC4OC)CC3OC)CC2OC)OC(C)C1O (some centres not stated) | > 12.5 µM (inactive) | > 12.5 µM (inactive) | > 12.5 µM (inactive) | > 12.5 µM (inactive) | > 12.5 µM (inactive) | > 12.5 µM (inactive) | > 12.5 µM (inactive) | > 12.5 µM (inactive) | > 12.5 µM (inactive) | > 12.5 µM (inactive) | > 12.5 µM (inactive) | – | > 12.5 µM (inactive) | > 12.5 µM (inactive) | > 12.5 µM (inactive) | > 12.5 µM (inactive) | > 12.5 µM (inactive) | 12.4 µM (inactive) | > 12.5 µM (inactive) | > 12.5 µM (inactive)
Cc1ccn2c(=O)cc(CN3CCOCC3)nc2c1 | > 100 µM (inactive) | > 100 µM (inactive) | > 100 µM (inactive) | > 100 µM (inactive) | > 100 µM (inactive) | > 100 µM (inactive) | > 100 µM (inactive) | > 100 µM (inactive) | > 100 µM (inactive) | > 100 µM (inactive) | > 100 µM (inactive) | – | > 100 µM (inactive) | > 100 µM (inactive) | > 100 µM (inactive) | > 100 µM (inactive) | > 100 µM (inactive) | > 100 µM (inactive) | > 100 µM (inactive) | > 100 µM (inactive)
COc1ccc2c(-c3ccc(OCCN(C)C)cc3)c(Oc3ccccc3)c(=O)oc2c1 | 11 µM (inactive) | 3.54 µM (inactive) | 2.58 µM (inactive) | 3.07 µM (inactive) | 3.74 µM (inactive) | 3.57 µM (inactive) | 2.71 µM (inactive) | 3.12 µM (inactive) | 12 µM (inactive) | 4.5 µM (inactive) | 10.5 µM (inactive) | 4.76 µM (inactive) | 3.17 µM (inactive) | 3.91 µM (inactive) | 6.71 µM (inactive) | 2.82 µM (inactive) | 2.09 µM (inactive) | 4 µM (inactive) | – | 5.86 µM (inactive)
CC(C)NC(NC(C)C)=C(S(=O)(=O)C(F)(F)C(F)(F)C(F)(F)C(F)(F)F)S(=O)(=O)C(F)(F)C(F)(F)C(F)(F)C(F)(F)F | 90.8 µM (inactive) | > 100 µM (inactive) | > 100 µM (inactive) | > 100 µM (inactive) | > 100 µM (inactive) | > 100 µM (inactive) | > 100 µM (inactive) | > 100 µM (inactive) | > 100 µM (inactive) | > 100 µM (inactive) | > 100 µM (inactive) | – | > 100 µM (inactive) | > 100 µM (inactive) | > 100 µM (inactive) | > 100 µM (inactive) | > 100 µM (inactive) | > 100 µM (inactive) | > 100 µM (inactive) | > 100 µM (inactive)
COc1ccc(C2(CC(C)C)CCN(S(=O)(=O)c3ccc(C)cc3)C2)cc1OC (configuration not stated) | 71.1 µM (inactive) | 17.9 µM (inactive) | 20.2 µM (inactive) | 2.88 µM (inactive) | 19.5 µM (inactive) | 32.2 µM (inactive) | 2.94 µM (inactive) | – | 29.8 µM (inactive) | 18.5 µM (inactive) | – | 34 µM (inactive) | 36.5 µM (inactive) | 37 µM (inactive) | > 100 µM (inactive) | 36.2 µM (inactive) | 28.5 µM (inactive) | 41.6 µM (inactive) | – | 49.7 µM (inactive)
O=c1sc2c(s1)SSSSS2 | > 50 µM (inactive) | 9.18 µM (inactive) | > 50 µM (inactive) | 31.8 µM (inactive) | 30.5 µM (inactive) | 31.1 µM (inactive) | 11.8 µM (inactive) | > 50 µM (inactive) | > 50 µM (inactive) | > 50 µM (inactive) | > 50 µM (inactive) | > 50 µM (inactive) | > 50 µM (inactive) | 20.2 µM (inactive) | > 50 µM (inactive) | > 50 µM (inactive) | 28.6 µM (inactive) | > 50 µM (inactive) | – | > 50 µM (inactive)
[N-]=[N+]=NC(c1cn(C2CC(O)C(CO)O2)c(=O)[nH]c1=O)C(Cl)I (configuration not stated) | > 100 µM (inactive) | – | > 100 µM (inactive) | – | – | > 100 µM (inactive) | > 100 µM (inactive) | – | > 100 µM (inactive) | > 100 µM (inactive) | > 100 µM (inactive) | > 100 µM (inactive) | > 100 µM (inactive) | > 100 µM (inactive) | > 100 µM (inactive) | > 100 µM (inactive) | > 100 µM (inactive) | > 100 µM (inactive) | – | > 100 µM (inactive)
O=c1cc(-c2ccccc2)oc2ccc(-c3ccc4oc(-c5ccccc5)cc(=O)c4c3)cc12 | > 10 µM (inactive) | 18 µM (inactive) | 15.9 µM (inactive) | 14.2 µM (inactive) | 17.3 µM (inactive) | 18.8 µM (inactive) | 11.2 µM (inactive) | 20.3 µM (inactive) | 15.7 µM (inactive) | 16.8 µM (inactive) | 16.6 µM (inactive) | – | 20.8 µM (inactive) | 15.6 µM (inactive) | > 10 µM (inactive) | – | > 10 µM (inactive) | 8.95 µM (inactive) | 10.1 µM (inactive) | 6.82 µM (inactive)
N#C/C(N)=C(C#N)/N=C/Nc1ccccc1N | > 100 µM (inactive) | > 100 µM (inactive) | > 100 µM (inactive) | > 100 µM (inactive) | > 100 µM (inactive) | > 100 µM (inactive) | > 100 µM (inactive) | > 100 µM (inactive) | > 100 µM (inactive) | > 100 µM (inactive) | > 100 µM (inactive) | – | > 100 µM (inactive) | > 100 µM (inactive) | > 100 µM (inactive) | > 100 µM (inactive) | > 100 µM (inactive) | > 100 µM (inactive) | > 100 µM (inactive) | > 100 µM (inactive)
COc1ccc(C(=O)O[C@H]2CC[C@@]3(C)[C@@H]4CC[C@H]5[C@]6(O)C[C@H](O)[C@@]7(O)[C@@H](CN8C[C@@H](C)CC[C@H]8[C@@]7(C)O)[C@]6(O)C[C@@]53OC24O)cc1OC [VERATRIDINE] | > 100 µM (inactive) | – | > 100 µM (inactive) | > 100 µM (inactive) | > 100 µM (inactive) | > 100 µM (inactive) | 95.5 µM (inactive) | > 100 µM (inactive) | > 100 µM (inactive) | > 100 µM (inactive) | > 100 µM (inactive) | 57.5 µM (inactive) | > 100 µM (inactive) | 82 µM (inactive) | > 100 µM (inactive) | > 100 µM (inactive) | 71.3 µM (inactive) | > 100 µM (inactive) | – | > 100 µM (inactive)
Cc1oc(N)c(S(=O)(=O)/C(C#N)=C/c2ccccc2[N+](=O)[O-])c1C | 17.5 µM (inactive) | 24.1 µM (inactive) | 20.8 µM (inactive) | 18.6 µM (inactive) | 14 µM (inactive) | 31.1 µM (inactive) | 22.4 µM (inactive) | 33.8 µM (inactive) | 23.6 µM (inactive) | 27.3 µM (inactive) | – | 21.9 µM (inactive) | 33.9 µM (inactive) | 25.5 µM (inactive) | 22.9 µM (inactive) | 19.5 µM (inactive) | 32.2 µM (inactive) | 16.4 µM (inactive) | – | 33.5 µM (inactive)
COC(=O)NC1C(C)OC(OC2C/C=C(/C)C3C=CC4C(OC5CC(OC6CC(OC7CC(O)C(O)C(C)O7)C(OC7CC(O)C(OC)C(C)O7)C(C)O6)C(O)C(C)O5)C(C)CC(C)C4C3(C)C(=O)C3=C(O)C4(CC(C)C(CO)=CC4/C=C\2C)OC3=O)CC1(C)[N+](=O)[O-] (configuration not stated) | 20.8 µM (inactive) | 3.29 µM (inactive) | 1.59 µM (inactive) | – | 3.23 µM (inactive) | 11.7 µM (inactive) | 6.15 µM (inactive) | – | 12.9 µM (inactive) | 38.7 µM (inactive) | 8.57 µM (inactive) | – | 4.6 µM (inactive) | 17.8 µM (inactive) | 11.7 µM (inactive) | 3.84 µM (inactive) | 9.89 µM (inactive) | 22.9 µM (inactive) | 2.54 µM (inactive) | 21.2 µM (inactive)
